As a reminder, the IC50 is the concentration that gives 50% inhibition.

One assay concerns 4T1. As to the kind of experiment: Antiproliferative activity against mouse 4T1 cells by EdU alexa fluor high-throughput imaging method. The class given is functional, cell-based.
The target of assay [1] is T1, Histone deacetylase 1 (Homo sapiens, UniProt Q13547). As to the kind of experiment: Inhibition of human HDAC1 expressed in baculovirus expression system by fluorescence method.
The next assay concerns CAPAN-1. The assay is described as follows: Antiproliferative activity against human CAPAN 1 cells incubated for 72 hrs by CCK8 assay. The class given is functional, cell-based. Particulars: CAPAN-1, 72 h. Background: Tetrazolium assays rely on reduction of a dye to a coloured formazan, in cell work by metabolically active cells.
Assay [2] has as its system A549. The assay is described as follows: Antiproliferative activity against human A549 cells incubated for 72 hrs by MTT assay. The format is functional, cell-based. Particulars: A549, 72 h.
A further assay deals with MDA-MB-468. The assay is described as follows: Antiproliferative activity against human MDA-MB-468 cells incubated for 72 hrs by MTT assay. The class given is functional, cell-based. Particulars: MDA-MB-468, 72 h.
For another assay, the system named is KG-1. The assay is described as follows: Antiproliferative activity against human KG-1 cells incubated for 72 hrs by MTT assay. The format is functional, cell-based. Particulars: KG-1, 72 h.
In assay [3] the target is Class 1 histone deacetylase (Homo sapiens, UniProt Q13547+O15379+Q92769+Q9BY41). As to the kind of experiment: Inhibition of HDAC class1 (unknown origin). The class given is protein assay.
Another assay deals with T98G. The assay is described as follows: Antiproliferative activity against human T98G cells assessed as reduction in cell viability incubated for 72 hrs by MTT assay. The class given is functional, cell-based.
The next assay has as its system U-87 MG. The assay is described as follows: Antiproliferative activity against human U87 cells assessed as reduction in cell viability incubated for 72 hrs by MTT assay. The class given is functional, cell-based, U-87MG ATCC.
The next assay has as its system U-251. The assay is described as follows: Antiproliferative activity against human U251 cells assessed as reduction in cell viability incubated for 72 hrs by MTT assay. Particulars: U-251, 72 h. The format is functional, cell-based.
For assay [4], the target named is Histone deacetylase. As to the kind of experiment: Inhibition of HDAC in human K562 cells using Boc-K(Ac)-AMC as substrate preincubated for 3 hrs followed by substrate addition and measured after 3 hrs by fluorescence method. The class given is cell-based.
Assay [5] addresses T2, Histone-lysine N-methyltransferase EHMT2 (Homo sapiens, UniProt Q96KQ7).
T2 sequence (Q96KQ7 whole entry): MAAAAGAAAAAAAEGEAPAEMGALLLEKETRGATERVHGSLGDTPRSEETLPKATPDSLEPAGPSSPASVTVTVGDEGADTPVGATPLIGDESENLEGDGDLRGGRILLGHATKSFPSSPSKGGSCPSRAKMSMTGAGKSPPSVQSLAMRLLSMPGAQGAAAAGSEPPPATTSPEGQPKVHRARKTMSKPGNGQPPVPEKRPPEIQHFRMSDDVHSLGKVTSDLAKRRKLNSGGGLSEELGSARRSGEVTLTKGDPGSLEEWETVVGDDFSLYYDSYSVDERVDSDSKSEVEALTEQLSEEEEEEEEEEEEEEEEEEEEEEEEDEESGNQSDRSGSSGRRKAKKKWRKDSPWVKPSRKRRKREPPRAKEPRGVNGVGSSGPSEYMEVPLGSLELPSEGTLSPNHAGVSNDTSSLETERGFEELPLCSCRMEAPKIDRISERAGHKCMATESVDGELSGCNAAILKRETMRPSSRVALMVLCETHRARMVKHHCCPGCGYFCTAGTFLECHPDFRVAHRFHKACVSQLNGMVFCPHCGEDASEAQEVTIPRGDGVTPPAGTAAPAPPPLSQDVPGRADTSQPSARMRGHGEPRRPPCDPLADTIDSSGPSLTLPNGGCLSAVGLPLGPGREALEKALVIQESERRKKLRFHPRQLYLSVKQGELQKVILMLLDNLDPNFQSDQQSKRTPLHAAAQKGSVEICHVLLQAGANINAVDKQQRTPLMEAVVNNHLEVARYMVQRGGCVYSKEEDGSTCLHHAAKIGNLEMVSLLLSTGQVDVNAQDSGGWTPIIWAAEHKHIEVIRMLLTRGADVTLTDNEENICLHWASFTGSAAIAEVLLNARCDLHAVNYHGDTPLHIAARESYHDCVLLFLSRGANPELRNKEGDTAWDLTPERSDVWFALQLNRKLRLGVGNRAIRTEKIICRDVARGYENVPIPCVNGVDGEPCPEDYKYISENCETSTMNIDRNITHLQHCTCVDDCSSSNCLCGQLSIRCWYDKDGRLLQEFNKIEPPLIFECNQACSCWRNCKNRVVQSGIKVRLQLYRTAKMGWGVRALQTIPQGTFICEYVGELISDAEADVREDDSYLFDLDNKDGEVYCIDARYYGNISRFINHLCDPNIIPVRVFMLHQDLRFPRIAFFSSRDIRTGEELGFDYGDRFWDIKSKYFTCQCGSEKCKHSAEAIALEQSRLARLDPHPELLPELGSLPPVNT
As to the kind of experiment: Inhibition of G9a in human MDA-MB-231 cells assessed as effect on H3K9Me2 levels incubated for 48 hrs by immunofluorescence in-cell western assay. The class given is cell-based.

The target in assay [6] is Histone deacetylase. The assay is described as follows: Inhibition of HDAC in human HeLa cell nuclear extracts using Boc-Lys (acetyl)-AMC as substrate preincubated for 5 mins followed by substrate addition and measured after 30 mins by fluorescence based assay.
For assay [7], the target named is T3, Epidermal growth factor receptor (Homo sapiens, UniProt P00533). As to the kind of experiment: Inhibition of EGFR (unknown origin) incubated for 40 mins by kinase-glo plus luminescence assay. On the technique in general: Kinase-Glo measures the ATP left after a reaction by luminescence.
For a further assay, the system named is THP-1. As to the kind of experiment: Antiproliferative activity against human THP1 incubated for 72 hrs by Trypan Blue reagent based assay. To be noted: THP-1, 72 h. The format is functional, cell-based.
In assay [8] the target is T1, Histone deacetylase 1. The assay is described as follows: Inhibition of HDAC1 (unknown origin).
The target in assay [9] is T4, Protein deacetylase HDAC6 (Homo sapiens, UniProt Q9UBN7).
T4 sequence (Q9UBN7 whole entry): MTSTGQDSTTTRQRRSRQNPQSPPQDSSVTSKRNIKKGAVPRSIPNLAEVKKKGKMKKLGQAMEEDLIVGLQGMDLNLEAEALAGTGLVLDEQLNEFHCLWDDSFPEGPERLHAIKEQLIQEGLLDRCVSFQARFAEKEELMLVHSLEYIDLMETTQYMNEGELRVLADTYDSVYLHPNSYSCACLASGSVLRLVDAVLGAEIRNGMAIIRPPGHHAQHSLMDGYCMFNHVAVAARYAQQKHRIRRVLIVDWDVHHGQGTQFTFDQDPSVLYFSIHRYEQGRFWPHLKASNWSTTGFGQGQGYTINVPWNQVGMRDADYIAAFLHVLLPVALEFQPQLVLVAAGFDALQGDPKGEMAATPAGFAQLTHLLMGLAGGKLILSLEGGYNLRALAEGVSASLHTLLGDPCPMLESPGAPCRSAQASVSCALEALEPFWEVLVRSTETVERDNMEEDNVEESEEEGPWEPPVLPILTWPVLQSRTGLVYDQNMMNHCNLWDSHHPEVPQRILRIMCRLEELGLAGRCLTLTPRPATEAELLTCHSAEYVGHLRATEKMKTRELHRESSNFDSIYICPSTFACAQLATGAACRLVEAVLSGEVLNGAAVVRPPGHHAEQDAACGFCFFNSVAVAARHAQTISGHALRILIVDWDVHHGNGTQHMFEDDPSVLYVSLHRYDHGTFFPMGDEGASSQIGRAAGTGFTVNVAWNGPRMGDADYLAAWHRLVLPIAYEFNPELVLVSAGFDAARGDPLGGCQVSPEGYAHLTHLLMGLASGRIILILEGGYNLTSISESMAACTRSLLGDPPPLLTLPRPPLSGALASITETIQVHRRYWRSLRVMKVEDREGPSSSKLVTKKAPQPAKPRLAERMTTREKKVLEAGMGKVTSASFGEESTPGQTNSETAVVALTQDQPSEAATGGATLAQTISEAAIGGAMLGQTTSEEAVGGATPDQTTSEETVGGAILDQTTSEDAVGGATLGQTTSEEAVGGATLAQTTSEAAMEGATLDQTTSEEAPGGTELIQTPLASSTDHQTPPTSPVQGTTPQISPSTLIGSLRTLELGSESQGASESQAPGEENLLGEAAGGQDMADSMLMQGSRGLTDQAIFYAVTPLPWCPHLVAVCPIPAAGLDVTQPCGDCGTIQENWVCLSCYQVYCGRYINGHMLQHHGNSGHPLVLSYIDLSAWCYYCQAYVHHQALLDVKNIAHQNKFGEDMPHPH
The assay is described as follows: Inhibition of HDAC6 (unknown origin).

The target in assay [10] is T3, Epidermal growth factor receptor. As to the kind of experiment: Inhibition of EGFR (unknown origin).
The subject of assay [11] is A549. As to the kind of experiment: Antiproliferative activity against human A549 cells. The class given is functional, cell-based.
In assay [12] the target is Cyclin-dependent kinase 4 (Homo sapiens, UniProt P11802). The assay is described as follows: Inhibition of CDK4 (unknown origin).
Assay [13] can be described thus: Inhibition of human SCC-25 cell metabolism incubated for 72 hrs by CCK8 assay. The format is functional. Particulars: SCC-25, 72 h.
Assay [14] addresses DNA (cytosine-5)-methyltransferase 1 (Homo sapiens, UniProt P26358). The assay is described as follows: Inhibition of DNMT1 (unknown origin) using poly(dI-dC)-poly(dI-dC as substrate in presence of [3H-SAM] preincubated for 15 mins followed by substrate and [3H-SAM] addition and measured after 120 mins by liquid scintillation counting method.
Assay [15] deals with DNA (cytosine-5)-methyltransferase 3A (Homo sapiens, UniProt Q9Y6K1). As to the kind of experiment: Inhibition of DNMT3A (unknown origin) using biotinylated DNA oligonucleotides as substrate in presence of [3H-SAM] preincubated for 15 mins followed by substrate and [3H-SAM] addition and measured after 4 hrs by liquid scintillation counting method.
Assay [16] has as its target T1, Histone deacetylase 1. As to the kind of experiment: Inhibition of HDAC1 (unknown origin) using Ac-peptide as substrate in preincubated for 15 mins followed by substrate addition and measured after 60 mins by fluorescence method.

T1 sequence (Q13547 whole entry): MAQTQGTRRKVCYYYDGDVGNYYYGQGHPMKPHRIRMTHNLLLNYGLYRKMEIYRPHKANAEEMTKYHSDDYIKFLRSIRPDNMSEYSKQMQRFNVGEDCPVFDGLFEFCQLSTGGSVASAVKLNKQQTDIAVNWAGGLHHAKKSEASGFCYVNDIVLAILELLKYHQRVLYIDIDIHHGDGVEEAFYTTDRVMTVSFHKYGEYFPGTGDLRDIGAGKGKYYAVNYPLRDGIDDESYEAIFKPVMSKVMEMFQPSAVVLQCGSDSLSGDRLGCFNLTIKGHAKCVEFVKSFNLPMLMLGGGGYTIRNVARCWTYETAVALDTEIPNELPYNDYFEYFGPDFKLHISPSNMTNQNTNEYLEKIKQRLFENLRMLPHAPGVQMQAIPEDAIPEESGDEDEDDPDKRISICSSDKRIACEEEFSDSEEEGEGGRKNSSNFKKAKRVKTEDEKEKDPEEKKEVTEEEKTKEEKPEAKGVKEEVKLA
T3 sequence (P00533 whole entry): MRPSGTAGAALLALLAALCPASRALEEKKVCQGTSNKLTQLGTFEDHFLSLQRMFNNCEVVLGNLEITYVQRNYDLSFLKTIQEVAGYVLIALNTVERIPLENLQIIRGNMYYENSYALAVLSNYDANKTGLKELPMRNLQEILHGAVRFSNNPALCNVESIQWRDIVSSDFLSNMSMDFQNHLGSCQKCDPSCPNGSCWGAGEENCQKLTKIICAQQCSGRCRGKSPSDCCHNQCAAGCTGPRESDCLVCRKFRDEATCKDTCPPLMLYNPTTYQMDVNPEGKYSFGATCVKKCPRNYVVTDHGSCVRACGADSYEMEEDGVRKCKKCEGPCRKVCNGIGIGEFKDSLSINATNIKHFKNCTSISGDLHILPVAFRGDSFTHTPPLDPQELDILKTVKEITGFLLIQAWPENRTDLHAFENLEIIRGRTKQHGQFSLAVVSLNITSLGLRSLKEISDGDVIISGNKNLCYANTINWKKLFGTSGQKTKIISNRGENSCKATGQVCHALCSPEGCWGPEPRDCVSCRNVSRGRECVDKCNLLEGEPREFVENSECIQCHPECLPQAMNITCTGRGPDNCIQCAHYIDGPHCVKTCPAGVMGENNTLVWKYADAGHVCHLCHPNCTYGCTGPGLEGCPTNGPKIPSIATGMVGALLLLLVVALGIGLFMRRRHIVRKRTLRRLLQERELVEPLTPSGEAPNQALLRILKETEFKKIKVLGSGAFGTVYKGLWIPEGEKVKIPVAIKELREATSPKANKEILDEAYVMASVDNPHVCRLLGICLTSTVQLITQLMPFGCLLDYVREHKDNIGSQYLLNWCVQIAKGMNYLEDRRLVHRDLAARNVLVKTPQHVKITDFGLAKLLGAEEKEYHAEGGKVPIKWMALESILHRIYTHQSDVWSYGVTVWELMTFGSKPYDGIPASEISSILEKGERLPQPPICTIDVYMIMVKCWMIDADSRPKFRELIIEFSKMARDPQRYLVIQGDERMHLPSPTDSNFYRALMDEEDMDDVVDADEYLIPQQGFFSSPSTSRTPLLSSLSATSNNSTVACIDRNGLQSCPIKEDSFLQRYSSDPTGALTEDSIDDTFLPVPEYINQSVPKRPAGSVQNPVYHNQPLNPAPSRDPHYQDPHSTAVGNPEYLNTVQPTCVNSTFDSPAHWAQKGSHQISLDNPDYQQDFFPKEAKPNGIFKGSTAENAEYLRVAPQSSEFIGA
Chain of Cyclin-dependent kinase 4 (P11802 whole entry): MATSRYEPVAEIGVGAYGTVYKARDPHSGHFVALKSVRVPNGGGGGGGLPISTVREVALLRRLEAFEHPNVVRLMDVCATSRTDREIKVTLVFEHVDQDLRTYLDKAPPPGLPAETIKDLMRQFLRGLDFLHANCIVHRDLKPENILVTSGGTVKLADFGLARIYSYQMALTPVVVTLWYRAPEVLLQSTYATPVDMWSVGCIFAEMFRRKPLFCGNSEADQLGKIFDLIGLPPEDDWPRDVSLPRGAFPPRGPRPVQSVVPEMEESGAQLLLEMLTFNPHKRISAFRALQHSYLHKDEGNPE
Chain of DNA (cytosine-5)-methyltransferase 1 (P26358 whole entry): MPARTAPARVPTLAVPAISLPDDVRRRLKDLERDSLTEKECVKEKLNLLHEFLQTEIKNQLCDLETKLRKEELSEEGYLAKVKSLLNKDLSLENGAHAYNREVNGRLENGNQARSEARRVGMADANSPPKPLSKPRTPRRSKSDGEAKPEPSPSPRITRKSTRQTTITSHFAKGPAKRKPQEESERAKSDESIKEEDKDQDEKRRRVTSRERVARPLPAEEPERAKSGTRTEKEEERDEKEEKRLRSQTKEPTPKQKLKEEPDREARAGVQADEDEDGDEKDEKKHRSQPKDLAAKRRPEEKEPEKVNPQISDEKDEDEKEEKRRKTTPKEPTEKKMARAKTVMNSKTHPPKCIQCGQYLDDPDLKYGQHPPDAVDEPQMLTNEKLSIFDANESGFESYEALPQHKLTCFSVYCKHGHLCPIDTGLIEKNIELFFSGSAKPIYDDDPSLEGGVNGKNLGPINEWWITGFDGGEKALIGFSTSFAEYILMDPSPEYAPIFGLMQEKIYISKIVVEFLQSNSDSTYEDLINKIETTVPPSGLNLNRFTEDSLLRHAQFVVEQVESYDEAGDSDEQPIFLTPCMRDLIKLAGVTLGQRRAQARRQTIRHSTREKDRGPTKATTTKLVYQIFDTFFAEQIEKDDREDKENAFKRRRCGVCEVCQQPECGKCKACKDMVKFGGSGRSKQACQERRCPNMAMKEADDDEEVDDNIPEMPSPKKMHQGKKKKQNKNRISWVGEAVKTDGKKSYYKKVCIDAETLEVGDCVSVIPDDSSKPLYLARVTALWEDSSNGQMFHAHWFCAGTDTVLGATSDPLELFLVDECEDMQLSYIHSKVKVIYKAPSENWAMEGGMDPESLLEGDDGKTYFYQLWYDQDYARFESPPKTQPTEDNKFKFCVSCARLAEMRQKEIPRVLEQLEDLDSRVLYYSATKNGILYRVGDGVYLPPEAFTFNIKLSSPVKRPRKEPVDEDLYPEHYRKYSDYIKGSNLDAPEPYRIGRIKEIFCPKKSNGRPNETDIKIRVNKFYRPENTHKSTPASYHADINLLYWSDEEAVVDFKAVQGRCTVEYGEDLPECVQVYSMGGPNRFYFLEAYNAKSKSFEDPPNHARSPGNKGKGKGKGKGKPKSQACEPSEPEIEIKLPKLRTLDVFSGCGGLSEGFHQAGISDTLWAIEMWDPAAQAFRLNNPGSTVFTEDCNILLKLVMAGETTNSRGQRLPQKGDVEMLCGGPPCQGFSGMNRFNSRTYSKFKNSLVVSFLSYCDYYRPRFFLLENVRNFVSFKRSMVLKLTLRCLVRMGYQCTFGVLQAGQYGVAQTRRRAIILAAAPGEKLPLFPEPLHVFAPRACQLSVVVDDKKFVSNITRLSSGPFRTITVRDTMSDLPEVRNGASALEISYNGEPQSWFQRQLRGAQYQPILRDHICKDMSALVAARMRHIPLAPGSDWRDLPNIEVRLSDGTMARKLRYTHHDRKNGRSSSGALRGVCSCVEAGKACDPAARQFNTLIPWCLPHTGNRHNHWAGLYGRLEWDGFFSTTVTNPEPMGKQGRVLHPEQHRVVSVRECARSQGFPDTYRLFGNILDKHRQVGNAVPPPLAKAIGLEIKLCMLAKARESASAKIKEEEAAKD
Chain of DNA (cytosine-5)-methyltransferase 3A (Q9Y6K1 whole entry, looked up): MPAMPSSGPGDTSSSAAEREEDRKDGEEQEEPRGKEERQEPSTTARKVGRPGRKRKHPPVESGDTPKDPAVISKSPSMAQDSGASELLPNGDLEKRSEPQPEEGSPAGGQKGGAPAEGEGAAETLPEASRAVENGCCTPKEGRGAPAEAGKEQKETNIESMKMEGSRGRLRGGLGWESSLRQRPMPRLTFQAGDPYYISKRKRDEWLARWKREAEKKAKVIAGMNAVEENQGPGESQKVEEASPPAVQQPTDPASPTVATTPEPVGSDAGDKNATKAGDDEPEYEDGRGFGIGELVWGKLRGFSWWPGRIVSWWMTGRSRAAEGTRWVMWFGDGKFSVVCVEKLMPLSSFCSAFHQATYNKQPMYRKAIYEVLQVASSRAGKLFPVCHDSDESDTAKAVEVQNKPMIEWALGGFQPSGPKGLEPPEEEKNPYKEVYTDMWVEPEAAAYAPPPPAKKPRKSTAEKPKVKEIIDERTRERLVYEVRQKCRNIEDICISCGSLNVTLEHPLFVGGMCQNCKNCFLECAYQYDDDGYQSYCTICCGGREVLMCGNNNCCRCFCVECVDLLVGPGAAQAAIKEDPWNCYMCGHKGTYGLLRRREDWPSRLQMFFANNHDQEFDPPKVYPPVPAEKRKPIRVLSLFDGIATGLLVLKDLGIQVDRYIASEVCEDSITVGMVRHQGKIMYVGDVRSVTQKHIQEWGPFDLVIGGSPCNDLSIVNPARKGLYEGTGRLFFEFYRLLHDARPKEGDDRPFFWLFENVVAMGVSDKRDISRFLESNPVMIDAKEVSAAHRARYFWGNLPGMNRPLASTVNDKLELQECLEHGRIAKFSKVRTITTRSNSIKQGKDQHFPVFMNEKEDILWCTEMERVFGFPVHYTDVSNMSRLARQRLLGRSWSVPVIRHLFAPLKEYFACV

In the case of `CCC(CC)(c1ccc(OCC(=O)NO)cc1)c1ccc(OCC(O)C(C)(C)C)c(C)c1` (centres undefined), the IC50 in the assay with 4T1 was determined as 10000 nM.

Regarding `Cc1sc2c(c1C)C(c1ccc(Cl)cc1)=N[C@@H](CC(=O)Nc1ccc(C(=O)NO)cc1)c1nnc(C)n1-2`, the IC50 on Histone deacetylase 1 [1] was 21 nM; in the assay on CAPAN-1, 150 nM.

Regarding `C=CC(=O)Nc1cc(Nc2nccc(-c3cn(C)c4ccccc34)n2)c(OC)cc1N(C)CCN(C)C` [OSIMERTINIB], the IC50 in the assay on A549 [2] amounted to 1970 nM; with MDA-MB-468, 1300 nM; in the assay on KG-1 it was 530 nM.

In [3], `Cn1c(CCCCCCC(=O)NO)nc2cc(N(CCCl)CCCl)ccc21` [TINOSTAMUSTINE] displayed an IC50 of 6 nM.

Turning to `O=C(CCCCCNC(=O)c1cc(O)c2c(c1)C(=O)c1cccc(O)c1C2=O)NO`, the results for the IC50 in the assay on T98G, in the assay on U-87 MG and in the assay with U-251 were 5500 nM, 8000 nM and 7000 nM, respectively.

With `COc1ccc2c(NC3CCN(Cc4ccccc4)CC3)nc(NCCNC(=O)CCCCC(=O)NO)nc2c1`, the IC50 was determined as 5700 nM against Histone deacetylase [4] and 7140 nM in assay [5].

Consider `COc1cc(NC(=O)CCCCCCCCCCC(=O)NO)ccc1Nc1nccc(-c2cn(C)c3ccccc23)n1`, for which the IC50 against Histone deacetylase [6] came out at 85 nM; in assay [7] it was 5700 nM; in the assay with A549 [2], 2190 nM; in the assay with MDA-MB-468, 230 nM; in the assay with KG-1, 240 nM.

As for `Cc1noc(C)c1-c1ccc2c(c1)c(Cc1ccc(F)cc1)cn2CCCCCCC(=O)NO`, the IC50 in the assay on THP-1 amounted to 15500 nM.

`O=C(CCCCCCn1cc(-c2ccc3ncnc(Nc4ccc(Br)cc4F)c3c2)nn1)NO`: the IC50 came out at 1.1 nM against Histone deacetylase 1 [8], 4.3 nM in assay [9], 10.3 nM in [10] and 710 nM in the assay with A549 [11].

On to `C#Cc1cccc(Nc2ncnc3cc(OCCOC)c(OCCOC)cc23)c1` [ERLOTINIB], for which the IC50 with A549 [11] is 16800 nM.

Turning to `Cc1nc2ccc(-c3nc(Nc4ccc(NC(=O)CCCCCC(=O)NO)cc4)ncc3F)cc2n1C(C)C`, the IC50 on Histone deacetylase 1 [8] is 17 nM; in assay [12] it was 1.2 nM; in [13] it was 126 nM.

For the molecule `O=C(NO)C1CCN(CC(O)COC(Cn2c3ccccc3c3ccccc32)Cn2c3ccccc3c3ccccc32)CC1` (centres undefined), the IC50 was 2020 nM in [14], 930 nM in assay [15] and 4160 nM against Histone deacetylase 1 [16].

The values are drawn from ChEMBL document CHEMBL4818986, “Recent progress on HDAC inhibitors with dual targeting capabilities for cancer treatment” (Eur J Med Chem, 2020).
